We go through 23 molecules from patent US20240382471A1, “GLUCAGON-LIKE PEPTIDE-1 RECEPTOR MODULATORS AND USES THEREOF” (HEPAGENE THERAPEUTICS (HK) LIMITED, priority 2021, published 2024).

Broadly, the EC50 is the concentration at which the effect is half-maximal.

The target of this assay is GLP1R (Homo sapiens, UniProt P43220). Put plainly: GLP1R cAMP assay (HTRF cAMP detection, agonist activity). The class given is cell-based. On the set-up: host or cells: Flp-In-293. The note with it: Flp-In-293-GLP1R cells, 30 min at 37° C., read-out: EC50 (nM) Assay 1. As for the experimental part:
GLP1R-mediated agonist activity was determined with a cell-based functional assay utilizing an HTRF (Homogeneous Time-Resolved Fluorescene) cAMP detection kit that measures CAMP levels in the cell. Reagents and equipment used in the assay are listed below, followed by the protocol.
• 1) Cell Line: Flp-In-293-GLP1R (constructed by Pharmaron Beijing Co., Ltd) • 2) Complete Medium: DMEM+10% FBS+1×Penicillin-Streptomycin+200 μg/mL HB • 3) Assay Buffer: 1×HBSS+20 mM HEPES+0.1% BSA+500 μM IBMX
• a) Seed Flpin-293-GLP1R cells at 20,000 cells/well into 384 well assay plate (6007680-50, PE) using complete medium. • b) Prepare 4×compound working solution with assay buffer. • c) Add 5 μL 4×compound working solution into cell plate, incubate 30 min at 37° C. • d) Dilute Eu-cAMP tracer (1/50) with lysis buffer and add 10 μl/well to assay plate. • e) Dilute Ulight-anti-cAMP (1/150) with lysis buffer and add 10 μl/well to assay plate. • f) Incubate 1 h at RT. • g) Read the plate at wavelengths of 665 nm and 615 nm on Envision 2105 plate reader.
• 3.1% Activity is calculated as follow:
% Activity=100−(Signalcmpd−SignalAve_PC)/(SignalAve_VC−SignalAve_PC)×100. • 3.2 Calculate EC50 and Plot effect-dose curve of cmpds:
Y=Bottom+(Top−Bottom)/(1+10^((Log EC50−X)*Hill Slope)) • X: log of agonist concentration; Y: % Activity.

Each structure is given as a SMILES string.

GLP1R, sequence (P43220 24-463, species assumed): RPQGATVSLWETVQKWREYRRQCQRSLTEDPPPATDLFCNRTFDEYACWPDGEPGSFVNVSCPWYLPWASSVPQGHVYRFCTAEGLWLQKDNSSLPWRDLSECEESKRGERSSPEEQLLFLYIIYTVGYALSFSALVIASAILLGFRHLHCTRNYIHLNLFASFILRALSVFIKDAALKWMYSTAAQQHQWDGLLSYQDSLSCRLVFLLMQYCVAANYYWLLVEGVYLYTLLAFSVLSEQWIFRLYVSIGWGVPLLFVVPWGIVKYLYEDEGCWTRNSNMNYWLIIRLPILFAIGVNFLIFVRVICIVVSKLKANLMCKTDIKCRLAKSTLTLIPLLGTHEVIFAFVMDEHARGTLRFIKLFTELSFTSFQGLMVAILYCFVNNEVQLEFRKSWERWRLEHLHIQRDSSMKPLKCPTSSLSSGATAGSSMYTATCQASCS

Regarding `COc1cc(C#N)ccc1COc1cccc(C23CCN(Cc4nc5ccc(C(=O)O)cc5n4C[C@@H]4CCO4)CC2C3)n1` (stereo partly drawn) [Compound 1-6, 2-((6-(6-((4-cyano-2-methoxybenzyl)oxy)pyridin-2-yl)-3-azabicyclo[4.1.0]heptan-3-yl)methyl)-1-(((S)-oxetan-2-yl)methyl)-1H-benzo[d]imidazole-6-carboxylic acid], the EC50 came to 0.003 nM.

For the molecule `N#Cc1ccc(COc2cccc(N3CC4CCC(C3)N4Cc3nc4ccc(C(=O)O)cc4n3C[C@@H]3CCO3)n2)cc1` [Compound 2-4, 2-[(3-{6-[(4-cyanophenyl)methoxy]pyridin-2-yl}-3,8-diazabicyclo[3.2.1]octan-8-yl)methyl]-3-[(2S)-oxetan-2-ylmethyl]-1,3-benzodiazole-5-carboxylic acid], the EC50 is more than 4 nM.

Take `O=C(O)c1ccc2nc(CN3CC4CN(c5cccc(OCc6ccc(F)cc6F)n5)CC4C3)n(C[C@@H]3CCO3)c2c1` (stereo partly drawn) [Compound 2-28, 2-[(5-{6-[(2,4-difluorophenyl)methoxy]pyridin-2-yl}-hexahydropyrrolo[3,4-c]pyrrol-2-yl)methyl]-3-[(2S)-oxetan-2-ylmethyl]-1,3-benzodiazole-5-carboxylic acid]: the concentration for a half-maximal effect (EC50) is more than 4 nM.

For the molecule `O=C(O)c1ccc2nc(CN3CC4CCC(C3)N4c3cccc(OCc4ccccc4F)n3)n(C[C@@H]3CCO3)c2c1` [Compound 2-36, 2-((−8-(6-((2-fluorobenzyl)oxy)pyridin-2-yl)-3,8-diazabicyclo[3.2.1]octan-3-yl)methyl)-1-(((S)-oxetan-2-yl)methyl)-1H-benzo[d]imidazole-6-carboxylic acid], the EC50 was more than 4 nM.

Regarding `N#Cc1ccc(COc2cccc(N3CC4CN(Cc5nc6ccc(C(=O)O)cc6n5Cc5ncco5)CC4C3)n2)c(F)c1` (centres unmarked) [Compound 2-26, 2-[(5-{6-[(4-cyano-2-fluorophenyl)methoxy]pyridin-2-yl}-hexahydropyrrolo[3,4-c]pyrrol-2-yl)methyl]-3-(1,3-oxazol-2-ylmethyl)-1,3-benzodiazole-5-carboxylic acid], the EC50 is more than 4 nM.

With `N#Cc1ccc(COc2cccc(N3CC4CCC(C3)N4Cc3nc4ccc(C(=O)O)cc4n3CC3CCO3)n2)c(F)c1` (centres unmarked) [Compound 2-9, 2-((−3-(6-((4-cyano-2-fluorobenzyl)oxy)pyridin-2-yl)-3,8-diazabicyclo[3.2.1]octan-8-yl)methyl)-1-(oxetan-2-ylmethyl)-1H-benzo[d]imidazole-6-carboxylic acid], the half-maximal effective concentration (EC50) was more than 4 nM.

With `N#Cc1ccc(COc2cccc(N3CC4CCC(C3)N4Cc3nc4ccc(C(=O)O)cc4n3CC3CCOC3)n2)c(F)c1` (centres unmarked) [Compound 2-11, 2-[(3-{6-[(4-cyano-2-fluorophenyl)methoxy]pyridin-2-yl}-3,8-diazabicyclo[3.2.1]octan-8-yl)methyl]-3-(oxolan-3-ylmethyl)-1,3-benzodiazole-5-carboxylic acid], the EC50 is more than 4 nM.

`O=C(O)c1ccc2nc(CN3C4CC3CN(c3cccc(OCc5ccc(Cl)cc5F)n3)C4)n(C[C@@H]3CCO3)c2c1` [Compound 2-3, 2-((−3-(6-((4-chloro-2-fluorobenzyl)oxy)pyridin-2-yl)-3,6-diazabicyclo[3.1.1]heptan-6-yl)methyl)-1-(((S)-oxetan-2-yl)methyl)-1H-benzo[d]imidazole-6-carboxylic acid]: the concentration giving a half-maximal response (EC50) was more than 4 nM.

Regarding `O=C(O)c1ccc2nc(CN3C4CCC3CN(c3cccc(OCc5ccc(Cl)cc5F)n3)C4)n(C[C@@H]3CCO3)c2c1` [Compound 2-6, 2-[(3-{6-[(4-chloro-2-fluorophenyl)methoxy]pyridin-2-yl}-3,8-diazabicyclo[3.2.1]octan-8-yl)methyl]-3-[(2S)-oxetan-2-ylmethyl]-1,3-benzodiazole-5-carboxylic acid], the concentration for a half-maximal effect (EC50) stood at 0.643 nM.

Regarding `N#Cc1ccc(COc2cccc(N3CC4CCC(C3)N4Cc3nc4ccc(C(=O)O)cc4n3C[C@@H]3CCO3)c2)c(F)c1` [Compound 2-18, 2-((−3-(3-((4-cyano-2-fluorobenzyl)oxy)phenyl)-3,8-diazabicyclo[3.2.1]octan-8-yl)methyl)-1-(((S)-oxetan-2-yl)methyl)-1H-benzo[d]imidazole-6-carboxylic acid], the EC50 is 1.17 nM.

For the molecule `N#Cc1ccc(COc2ccnc(C34CCN(Cc5nc6ccc(C(=O)O)cc6n5C[C@@H]5CCO5)CC3C4)c2)c(F)c1` (single isomer, unassigned) [Compound 1-2-B], the concentration giving a half-maximal response (EC50) was more than 4 nM.

Regarding `N#Cc1ccc(COc2cccc(N3CC4CN(Cc5nc6ccc(C(=O)O)cc6n5C[C@@H]5CCO5)CC4C3)n2)c(F)c1` (stereo partly drawn) [Compound 2-20, 2-[(5-{6-[(4-cyano-2-fluorophenyl)methoxy]pyridin-2-yl}-hexahydropyrrolo[3,4-c]pyrrol-2-yl)methyl]-3-[(2S)-oxetan-2-ylmethyl]-1,3-benzodiazole-5-carboxylic acid], the EC50 came out at 1.84 nM.

As for `O=C(O)c1ccc2nc(CN3C4CCC3CN(c3cccc(OCc5ccc(F)cc5F)n3)C4)n(C[C@@H]3CCO3)c2c1` [Compound 2-7, 2-((−3-(6-((2,4-difluorobenzyl)oxy)pyridin-2-yl)-3,8-diazabicyclo[3.2.1]octan-8-yl)methyl)-1-(((S)-oxetan-2-yl)methyl)-1H-benzo[d]imidazole-6-carboxylic acid], the EC50 is more than 4 nM.

Consider `N#Cc1ccc(COc2ccnc(C34CCN(Cc5nc6ccc(C(=O)O)cc6n5C[C@@H]5CCO5)CC3C4)c2)c(F)c1` (single isomer, unassigned) [Compound 1-2-A], for which the EC50 was more than 4 nM.

Regarding `N#Cc1ccc(COc2cccc(C34CCN(Cc5nc6ccc(C(=O)O)cc6n5C[C@@H]5CCO5)CC3C4)c2)c(F)c1` (single isomer, unassigned) [Compound 1-9-A], the EC50 was 1.01 nM.

`O=C(O)c1ccc2nc(CN3CC4CCC(C3)N4c3cccc(OCc4ccncc4)n3)n(C[C@@H]3CCO3)c2c1` [Compound 2-41, 3-[(2S)-oxetan-2-ylmethyl]-2-({8-[6-(pyridin-4-ylmethoxy)pyridin-2-yl]-3,8-diazabicyclo[3.2.1]octan-3-yl}methyl)-1,3-benzodiazole-5-carboxylic acid]: the EC50 was more than 4 nM.

Regarding `N#Cc1ccc(COc2cccc(N3CC4CCC(C3)N4Cc3nc4ccc(C(=O)O)cc4n3C[C@@H]3CCCO3)n2)c(F)c1` [Compound 2-10, 2-((−3-(6-((4-cyano-2-fluorobenzyl)oxy)pyridin-2-yl)-3,8-diazabicyclo[3.2.1]octan-8-yl)methyl)-1-(((S)-tetrahydrofuran-2-yl)methyl)-1H-benzo[d]imidazole-6-carboxylic acid], the EC50 was more than 4 nM.

`O=C(O)c1ccc2nc(CN3C4CCC3CN(c3cccc(OCc5ccc(C(F)(F)F)cc5F)n3)C4)n(C[C@@H]3CCO3)c2c1` [Compound 2-15, 2-((−3-(6-((2-fluoro-4-(trifluoromethyl)benzyl)oxy)pyridin-2-yl)-3,8-diazabicyclo[3.2.1]octan-8-yl)methyl)-1-(((S)-oxetan-2-yl)methyl)-1H-benzo[d]imidazole-6-carboxylic acid]: the EC50 was more than 4 nM.

On to `Cc1ccc(COc2cccc(N3CC4CCC(C3)N4Cc3nc4ccc(C(=O)O)cc4n3C[C@@H]3CCO3)n2)c(F)c1` [Compound 2-8, 2-[(3-{6-[(2-fluoro-4-methylphenyl)methoxy]pyridin-2-yl}-3,8-diazabicyclo[3.2.1]octan-8-yl)methyl]-3-[(2S)-oxetan-2-ylmethyl]-1,3-benzodiazole-5-carboxylic acid], for which the concentration giving a half-maximal response (EC50) was more than 4 nM.

For `Cc1ccc(COc2cccc(N3C4CCC3CN(Cc3nc5ccc(C(=O)O)cc5n3C[C@@H]3CCO3)C4)n2)c(F)c1` [Compound 2-37, 2-((−8-(6-((2-fluoro-4-methylbenzyl)oxy)pyridin-2-yl)-3,8-diazabicyclo[3.2.1]octan-3-yl)methyl)-1-(((S)-oxetan-2-yl)methyl)-1H-benzo[d]imidazole-6-carboxylic acid], the 50% effective concentration (EC50) is 0.929 nM.

For `O=C(O)c1ccc2nc(CN3CC4CCC(C3)N4c3cccc(OCc4ccc(Cl)cc4F)n3)n(C[C@@H]3CCO3)c2c1` [Compound 2-39, 2-[(8-{6-[(4-chloro-2-fluorophenyl)methoxy]pyridin-2-yl}-3,8-diazabicyclo[3.2.1]octan-3-yl)methyl]-3-[(2S)-oxetan-2-ylmethyl]-1,3-benzodiazole-5-carboxylic acid], the half-maximal effective concentration (EC50) came out at 0.346 nM.

Regarding `N#Cc1ccc(COc2cccc(N3CC4CCC(C3)N4Cc3nc4ccc(C(=O)O)cc4n3C[C@@H]3CCO3)n2)c(F)c1` [Compound 2, 2-((−3-(6-((4-cyano-2-fluorobenzyl)oxy)pyridin-2-yl)-3,8-diazabicyclo[3.2.1]octan-8-yl)methyl)-1-(((S)-oxetan-2-yl)methyl)-1H-benzo[d]imidazole-6-carboxylic acid], the EC50 is 1.22 nM.

`O=C(O)c1ccc2nc(CN3CC4CCC(C3)N4c3cccc(OCc4ccncc4F)n3)n(C[C@@H]3CCO3)c2c1` [Compound 2-40, 2-((−8-(6-((3-fluoropyridin-4-yl)methoxy)pyridin-2-yl)-3,8-diazabicyclo[3.2.1]octan-3-yl)methyl)-1-(((S)-oxetan-2-yl)methyl)-1H-benzo[d]imidazole-6-carboxylic acid]: the EC50 was more than 4 nM.
